Experimental data taken from ChEMBL document CHEMBL1201862, “PubChem BioAssay data set” (2004).
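Cultured in 96-well plates, cells were exposed to test compound for 48 hours across five concentrations. At the GI50, growth is halved.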 Activity calls are given as the source filed them. No stated cut-off is given here; in the data, active = GI50 up to about 1.1 µM and inactive = higher.

What was measured:
Assay in all cases: NCI tumour cell line growth inhibition, 48 h
786-0 = system: 786-0
M14 = system: M14
HOP-62 = system: HOP-62
HT-29 = system: HT-29
OVCAR-4 = system: OVCAR-4
HCC 2998 = system: HCC 2998
RPMI-8226 = system: RPMI-8226
ACHN = system: ACHN
SR = system: SR
CAKI-1 = system: CAKI-1
UO-31 = system: UO-31
SK-OV-3 = system: SK-OV-3
OVCAR-3 = system: OVCAR-3
NCI-H460 = system: NCI-H460
IGROV-1 = system: IGROV-1
SW-620 = system: SW-620
T47D = system: T47D
MOLT-4 = system: MOLT-4
UACC-62 = system: UACC-62
A498 = system: A498

Structure (SMILES) | GI50 (786-0) | GI50 (M14) | GI50 (HOP-62) | GI50 (HT-29) | GI50 (OVCAR-4) | GI50 (HCC 2998) | GI50 (RPMI-8226) | GI50 (ACHN) | GI50 (SR) | GI50 (CAKI-1) | GI50 (UO-31) | GI50 (SK-OV-3) | GI50 (OVCAR-3) | GI50 (NCI-H460) | GI50 (IGROV-1) | GI50 (SW-620) | GI50 (T47D) | GI50 (MOLT-4) | GI50 (UACC-62) | GI50 (A498)
Cc1csc2n(C)c(=O)c3ccccc3[n+]12 | > 100 µM (inactive) | > 100 µM (inactive) | > 100 µM (inactive) | > 100 µM (inactive) | > 100 µM (inactive) | > 100 µM (inactive) | > 100 µM (inactive) | > 100 µM (inactive) | > 100 µM (inactive) | > 100 µM (inactive) | > 100 µM (inactive) | > 100 µM (inactive) | > 100 µM (inactive) | > 100 µM (inactive) | > 100 µM (inactive) | > 100 µM (inactive) | > 100 µM (inactive) | > 100 µM (inactive) | > 100 µM (inactive) | 
COC(=O)C(CCSC)NC(=O)CNC(=O)CSc1nnc(COc2ccc(Cl)cc2)n1-c1ccccc1 (stereo unspecified) | 16 µM (inactive) | 19.5 µM (inactive) | 17.1 µM (inactive) | 17.7 µM (inactive) | 19.3 µM (inactive) | 14 µM (inactive) | 22.6 µM (inactive) | 17 µM (inactive) |  |  | 10.4 µM (inactive) | 18.1 µM (inactive) |  | 17.5 µM (inactive) | 16.6 µM (inactive) | 20.3 µM (inactive) | 18.4 µM (inactive) | 5.36 µM (inactive) | 16.7 µM (inactive) | 29.1 µM (inactive)
Oc1cccc(/C=N/N=c2/[nH][nH]/c(=N/N=C/c3cccc(O)c3)c3ccccc23)c1 | 13.7 µM (inactive) | 21.7 µM (inactive) | 12.5 µM (inactive) | 24.1 µM (inactive) | 17.4 µM (inactive) |  | 11.5 µM (inactive) | 14.3 µM (inactive) | 2.55 µM (inactive) | 29.1 µM (inactive) | 15 µM (inactive) | 29.3 µM (inactive) | 13.9 µM (inactive) | 21.4 µM (inactive) | 11.6 µM (inactive) | 14.6 µM (inactive) | 15.7 µM (inactive) | 0.426 µM (active) | 13.5 µM (inactive) | 
COc1cc2c(c(O)c1OC)C(=O)C1CCC(=O)N1C2c1cccc2ccccc12 (stereo unspecified) | > 100 µM (inactive) | 51.4 µM (inactive) | 54.8 µM (inactive) | 42.5 µM (inactive) | 47.4 µM (inactive) |  | 20.7 µM (inactive) | 28.9 µM (inactive) | 26.5 µM (inactive) | 85.1 µM (inactive) | 31.3 µM (inactive) | 18.7 µM (inactive) | 30.6 µM (inactive) | 32.3 µM (inactive) | 36.1 µM (inactive) | 39.7 µM (inactive) | 36.6 µM (inactive) | 21.4 µM (inactive) | 58.5 µM (inactive) | > 100 µM (inactive)
Cc1cc(=O)oc2c(CNC(CO)C(=O)O)c(O)ccc12 (stereo unspecified) | > 100 µM (inactive) | > 100 µM (inactive) | > 100 µM (inactive) | > 100 µM (inactive) | > 100 µM (inactive) |  | > 100 µM (inactive) | > 100 µM (inactive) | 94.2 µM (inactive) | > 100 µM (inactive) | 73.1 µM (inactive) | > 100 µM (inactive) | > 100 µM (inactive) | > 100 µM (inactive) | > 100 µM (inactive) | > 100 µM (inactive) | > 100 µM (inactive) | > 100 µM (inactive) | > 100 µM (inactive) | 
